The record followed here is US20240092784A1, “CONDENSED HETEROCYCLIC COMPOUND” (NISSAN CHEMICAL CORPORATION, priority 2020, published 2024).

human SPR, sequence (P35270 whole entry): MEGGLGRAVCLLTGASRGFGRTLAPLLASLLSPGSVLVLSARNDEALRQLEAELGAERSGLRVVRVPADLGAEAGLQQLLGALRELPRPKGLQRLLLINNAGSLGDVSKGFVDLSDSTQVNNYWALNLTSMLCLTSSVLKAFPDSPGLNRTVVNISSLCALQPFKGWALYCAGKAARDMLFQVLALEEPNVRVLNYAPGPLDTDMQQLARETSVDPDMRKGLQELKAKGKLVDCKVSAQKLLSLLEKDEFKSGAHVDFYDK

One experiment concerns the target human SPR (Homo sapiens (Human), UniProt P35270). The experiment can be described thus: Evaluation Example 2: Measurement of human SPR inhibitory activity (seven concentrations, sepiapterin absorbance at 420 nm). It is filed as biochemical. Particulars: Evaluation Example 2, seven concentrations 0.14 nM to 100 nM, 240 minutes at room temperature, read-out: IC50. A digest of the protocol:
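Reactions ran 240 min at room temperature in 100 mM Tris-HCl pH 7.5 with 0.01% BSA. They contained tag-cleaved, E. coli-expressed full-length human SPR (diluted to 150 ng/mL), seven compound concentrations from 0.14 to 100 nM, and sepiapterin/NADPH added as a 120 μM/160 μM solution. Inhibition was calculated from sepiapterin absorbance at 420 nm.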
With `CC(C)Cn1c(=O)c(C(=O)NC2CC2)c(O)n2ncc(/C=C/C(=O)N3CCC(O)CC3)c12` [compound 476, (E)-N-Cyclopropyl-7-hydroxy-3-(3-(4-hydroxypiperidin-1-yl)-3-oxoprop-1-en-1-yl)-4-isobutyl-5-oxo-4,5-dihydropyrazolo[1,5-a]pyrimidine-6-carboxamide], the IC50 was 0.75 nM.
In the case of `CC(C)Cn1c(=O)c(C(=O)NC2CC2)c(O)n2ncc(/C=C/c3cnccn3)c12` [Synthesis Example 236, (E)-N-Cyclopropyl-7-hydroxy-4-isobutyl-5-oxo-3-(2-(pyrazin-2-yl)vinyl)-4,5-dihydropyrazolo[1,5-a]pyrimidine-6-carboxamide], the IC50 was determined as 0.97 nM.
`Cc1nn2c(O)c(C(=O)NC3CC3)c(=O)n(CC(C)C)c2c1/C=C/C(=O)N1CCCC1` [compound 564, (E)-N-Cyclopropyl-7-hydroxy-4-isobutyl-2-methyl-5-oxo-3-(3-oxo-3-(pyrrolidin-1-yl)prop-1-en-1-yl)-4,5-dihydropyrazolo[1,5-a]pyrimidine-6-carboxamide]: the IC50 was found to be 0.95 nM.
Same read-out and setting: the same measure for `CC(C)Cn1c(=O)c(C(=O)NC2CC2)c(O)n2ncc(/C=C/C(C)(C)C)c12` [Synthesis Example 243, (E)-N-Cyclopropyl-3-(3,3-dimethylbut-1-en-1-yl)-7-hydroxy-4-isobutyl-5-oxo-4,5-dihydropyrazolo[1,5-a]pyrimidine-6-carboxamide]: 1.58 nM; for `CC(C)(C)Cn1c(=O)c(C(=O)NC2CC2)c(O)n2nc(Nc3ccnc(C#N)n3)cc12` [Synthesis Example 325, 2-((2-Cyanopyrimidin-4-yl)amino)-N-cyclopropyl-7-hydroxy-4-neopentyl-5-oxo-4,5-dihydropyrazolo[1,5-a]pyrimidine-6-carboxamide]: 1.45 nM.
In the case of `CC(C)Cn1c(=O)c(C(=O)NC2CC2)c(O)n2ncc(/C=C/C3CC3)c12` [Synthesis Example 246, (E)-N-Cyclopropyl-3-(2-cyclopropylvinyl)-7-hydroxy-4-isobutyl-5-oxo-4,5-dihydropyrazolo[1,5-a]pyrimidine-6-carboxamide], the IC50 amounted to 1.19 nM.
Consider `Cc1nn2c(O)c(C(=O)NC3CC3)c(=O)n(CC(C)C)c2c1/C=C/C(=O)N1CCCC12CCN(C(=O)OC(C)(C)C)CC2` [Synthesis Example 661, Tert-butyl (E)-1-(3-(6-(cyclopropylcarbamoyl)-7-hydroxy-4-isobutyl-2-methyl-5-oxo-4,5-dihydropyrazolo[1,5-a]pyrimidin-3-yl)acryloyl)-1,8-diazaspiro[4.5]decane-8-carboxylate], for which the IC50 is 2.48 nM.

Still in this experiment, the particulars now being: sepiapterin absorbance, Table 41, read-out: concentration at 50% inhibition of human SPR (IC50).
`Cc1nn2c(O)c(C(=O)NC3CC3)c(=O)n(CC(C)C)c2c1/C=C/C(=O)N1C[C@@H]2C[C@H]1CO2` [Synthesis Example 753, 3-((E)-3-((1S,4S)-2-Oxa-5-azabicyclo[2.2.1]heptan-5-yl)-3-oxoprop-1-en-1-yl)-N-cyclopropyl-7-hydroxy-4-isobutyl-2-methyl-5-oxo-4,5-dihydropyrazolo[1,5-a]pyrimidine-6-carboxamide]: the IC50 is 0.48 nM.
Still for that read-out and setting: the same measure for `CC(C)Cn1c(=O)c(C(=O)NC2CC2)c(O)n2ncc(/C=C/C(=O)N3CC[C@@H](C(C)(C)O)C3)c12` [Synthesis Example 743, (R,E)-N-Cyclopropyl-7-hydroxy-3-(3-(3-(2-hydroxypropan-2-yl)pyrrolidin-1-yl)-3-oxoprop-1-en-1-yl)-4-isobutyl-5-oxo-4,5-dihydropyrazolo[1,5-a]pyrimidine-6-carboxamide]: 1.33 nM; for `Cc1nn2c(O)c(C(=O)NC3CC3)c(=O)n(CC(C)C)c2c1/C=C/C(=O)N1CCOc2ccncc21` [Synthesis Example 695, (E)-N-Cyclopropyl-3-(3-(2,3-dihydro-4H-pyrido[4,3-b][1,4]oxazin-4-yl)-3-oxoprop-1-en-1-yl)-7-hydroxy-4-isobutyl-2-methyl-5-oxo-4,5-dihydropyrazolo[1,5-a]pyrimidine-6-carboxamide]: 1.3 nM.
